Where two headings read alike, the source gives them in different places.
Columns and labels:
FKBP12 [1] = biological target: T1, FKBP12 (Homo sapiens, UniProt P62942); experiment: NanoBRET FKBP12 in intact HEK293 cells; format: cell-based
FKBP12 [2] = biological target: T1, FKBP12; experiment: competitive fluorescence polarization assay, binding to FKBP12; conditions: competitive FP assay
BRD4 = biological target: T2, BRD4 (Homo sapiens, UniProt O60885); experiment: NanoBRET BRD4, transient BRD4-NanoLuc in HEK293T cells; format: cell-based; conditions: intact HEK293 cells
T2 construct: full-length BRD4 fused to NanoLuc at N terminus; expressed in transfected cells; host or cells: HEK293T
Experimental: The NanoBRET assay was performed as described previously[26],[39]. To study BRD4 engagement, we employed two models: cells stably expressing BRD4-NanoLuc and cells with transient BRD4-NanoLuc expression. For stable cell lines, the coding sequence of human BRD4 (Isoform B) was fused in-frame to NanoLuc luciferase under the control of the human ubiquitin C (UbC) promoter, with left and right homology arms targeting the AAVS1 locus in intron 1 of the PPP1R12C gene to facilitate genomic integration. PC3 prostate cancer cells were transfected with this construct and vectors expressing Cas9 and an sgRNA targeting the AAVS1 locus using Lipofectamine 3000 (Invitrogen). Successful integrands were selected with blasticidin. Expression of the fusion protein was confirmed by western blot. For transient experiments, full-length BRD4 fused to NanoLuc at N terminus, was cloned into an expression plasmid and transfected into HEK293T cells using FuGENE HD (Promega, E2312), with protein expression allowed for 20 h. Serially diluted inhibitors and BRD Tracer-02 (Promega, TracerDB ID: T000022) at the Tracer KD concentration (from TracerDB)[40] were dispensed into white 384-well plates (Greiner 781207) using an ECHO 550 acoustic dispenser (Labcyte). The cells were trypsinized, resuspended in Opti-MEM without phenol red (Life Technologies), and seeded at 2 × 10^5 cells/mL. After equilibration for 2 h at 37 °C/5% CO₂ following compound treatment, the NanoBRET® NanoGlo Substrate + Extracellular NanoLuc® Inhibitor (Promega, N2162) was added according to the manufacturer’s protocol, and filtered luminescence was measured on a PHERAstar plate reader (BMG Labtech) using a donor (450 nm BP) and acceptor (610 nm LP) filter pair. Competitive displacement data were analyzed using GraphPad Prism 9 with a normalized 3-parameter curve fit: Y = 100/(1 + 10^(X − log IC₅₀)). For BRET measurements after FKBP12 knockdown in stably expressing BRD4 Nano-Luc reporter cell line, 10 nL/per well of the FKBP12 PROTAC was pipetted to each well using Labcyte to achieve the final concentration of 200 nM and the plated cells were incubated over-night at 37 °C and 5% CO2. BRET measurements were performed as outlined above.

BRD4^BD2 = biological target: T3, BRD4^BD2 (Homo sapiens, UniProt O60885); experiment: competitive fluorescence polarization assay, BRD4 BD2 -/+ presenter protein; format: binding; conditions: for α BRD4^BD2 (binding cooperativity factor): ratio of binding in absence or presence of FKBP12
T3 construct: to the isolated BD1 and BD2 domains of BRD2, BRD3 and BRD4

BRD4^BD1 = biological target: T4, BRD4^BD1 (Homo sapiens, UniProt O60885); experiment: competitive fluorescence polarization assay, BRD4 BD1 -/+ presenter protein; format: binding; conditions: for α BRD4^BD1 (binding cooperativity factor): ratio of binding in absence or presence of FKBP12
T4 construct: to the isolated BD1 and BD2 domains of BRD2, BRD3 and BRD4

[3] = absence of FKBP12, 2 nM JQ1-FL tracer, read-out: Binding to BRD4^BD2 - FKBP12 Kd
[4] = presence of 15 µM FKBP12, read-out: Binding to BRD4^BD2 + FKBP12 Kd (converted)
[5] = absence of FKBP12, 2 nM JQ1-FL tracer, read-out: Binding to BRD4^BD1 - FKBP12 Kd
[6] = presence of 15 µM FKBP12, read-out: Binding to BRD4^BD1 + FKBP12 Kd (converted)

T1 sequence (P62942 whole entry): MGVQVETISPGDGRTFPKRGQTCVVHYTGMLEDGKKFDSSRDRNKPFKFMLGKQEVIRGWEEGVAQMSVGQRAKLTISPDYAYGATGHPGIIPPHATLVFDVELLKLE

SMILES | IC50 (FKBP12 [1]) [µM] | Kd (FKBP12 [2]) [µM] | IC50 (BRD4) [µM] | Kd (BRD4^BD2; [3]) [µM] | Kd (BRD4^BD2; [4]) [µM] | α BRD4^BD2 (binding cooperativity factor) (BRD4^BD2) | Kd (BRD4^BD1; [5]) [µM] | Kd (BRD4^BD1; [6]) [µM] | α BRD4^BD1 (binding cooperativity factor) (BRD4^BD1) | nanoBRET BRD4 IC50 (BRD4)
Cc1sc2c(c1C)C(c1ccc(Cl)cc1)=NC(CC(=O)N1CCC(N3CCC(n4cc(C5CN(Cc6ccccn6)C(=O)C6CCCC5N6S(=O)(=O)c5cc(Cl)cc(Cl)c5)nn4)CC3)CC1)c1nnc(C)n1-2 (centres unmarked) [a9c] | 0.107 | 0.0022 | 0.155 | 0.31 ± 0.04 | 0.65 ± 0.09 | 0.5 | 0.28 ± 0.04 | 0.18 ± 0.02 | 1.6 | –
Cc1sc2c(c1C)C(c1ccc(Cl)cc1)=NC(CC(=O)N1CCC(N3CCC(n4cc(COCC5CN(Cc6ccccn6)C(=O)C6CCCC5N6S(=O)(=O)c5cc(Cl)cc(Cl)c5)nn4)CC3)CC1)c1nnc(C)n1-2 (centres unmarked) [a9d] | 0.169 | 0.0017 | 0.364 | 0.5 ± 0.09 | 0.45 ± 0.07 | 1.1 | 0.34 ± 0.04 | 0.14 ± 0.01 | 2.4 | –
Cc1sc2c(c1C)C(c1ccc(Cl)cc1)=NC(CC(=O)N1CCC(N3CCC(Cn4cc(C5CN(Cc6ccccn6)C(=O)C6CCCC5N6S(=O)(=O)c5cc(Cl)cc(Cl)c5)nn4)CC3)CC1)c1nnc(C)n1-2 (centres unmarked) [a10c] | 0.288 | 0.0003 | 0.497 | 0.17 ± 0.03 | – | – | 0.12 ± 0.03 | 0.9 ± 0.1 | 0.1 | –
Cc1sc2c(c1C)C(c1ccc(Cl)cc1)=NC(CC(=O)N1CCC(N3CCC(Cn4cc(COCC5CN(Cc6ccccn6)C(=O)C6CCCC5N6S(=O)(=O)c5cc(Cl)cc(Cl)c5)nn4)CC3)CC1)c1nnc(C)n1-2 (centres unmarked) [a10d] | 0.241 | 0.0016 | – | 0.17 ± 0.03 | 0.08 ± 0.02 | 2.1 | 0.14 ± 0.03 | 0.1 ± 0.03 | 1.4 | none
Cc1sc2c(c1C)C(c1ccc(Cl)cc1)=NC(CC(=O)N1CC(CN3CCC(n4cc(C5CN(Cc6ccccn6)C(=O)C6CCCC5N6S(=O)(=O)c5cc(Cl)cc(Cl)c5)nn4)CC3)C1)c1nnc(C)n1-2 (centres unmarked) [a11c] | 0.218 | 0.0007 | 1.23 | – | 0.45 ± 0.07 | 4.7 | – | 0.19 ± 0.03 | 5.3 | –
Cc1sc2c(c1C)C(c1ccc(Cl)cc1)=NC(CC(=O)N1CC(CN3CCC(n4cc(COCC5CN(Cc6ccccn6)C(=O)C6CCCC5N6S(=O)(=O)c5cc(Cl)cc(Cl)c5)nn4)CC3)C1)c1nnc(C)n1-2 (centres unmarked) [a11d] | 0.165 | 0.0008 | 0.687 | – | 0.7 ± 0.1 | 1.8 | 0.48 ± 0.07 | 0.04 ± 0.01 | 12 | –
Cc1sc2c(c1C)C(c1ccc(Cl)cc1)=NC(CC(=O)N1CC(CN3CCC(Cn4cc(C5CN(Cc6ccccn6)C(=O)C6CCCC5N6S(=O)(=O)c5cc(Cl)cc(Cl)c5)nn4)CC3)C1)c1nnc(C)n1-2 (centres unmarked) [a12c] | 0.28 | 0.0018 | 0.748 | 0.8 ± 0.1 | 0.7 ± 0.09 | 1.1 | 0.39 ± 0.05 | 0.23 ± 0.02 | 1.7 | –
Cc1sc2c(c1C)C(c1ccc(Cl)cc1)=NC(CC(=O)N1CC(CN3CCC(Cn4cc(COCC5CN(Cc6ccccn6)C(=O)C6CCCC5N6S(=O)(=O)c5cc(Cl)cc(Cl)c5)nn4)CC3)C1)c1nnc(C)n1-2 (centres unmarked) [a12d] | 0.406 | 0.0023 | 0.514 | – | 0.59 ± 0.07 | 1.9 | 0.25 ± 0.04 | 0.04 ± 0.01 | 6.3 | –
Cc1sc2c(c1C)C(c1ccc(C#CCNC(=O)COCCn3cc(COCC4CN(Cc5ccccn5)C(=O)C5CCCC4N5S(=O)(=O)c4cc(Cl)cc(Cl)c4)nn3)cc1)=NC(CC(=O)OC(C)(C)C)c1nnc(C)n1-2 (centres unmarked) [b3d] | 0.015 | 0.001 | 0.266 | 0.11 ± 0.03 | – | 0.1 | 0.068 ± 0.009 | 0.2 ± 0.03 | 0.3 | –
